Results from article PMC5750238 (2018).

Assays:
[1] = test system: Mango construct (RNA, aptamer) GGGAGAUCGUCCUAAGCGCUUUCGAGCGUUUAGCCUGGGUCGCGAAGGGACGGUGCGGAGAGGAGAGCGACUCAGGGAUGGUGAAGCCUCCACGCCAUCGACGGUCUCCCGAUACUCAUCGCGACUGAAGGAGGCACGGUCGGCAUUGUACUUCGGUACGAUGCGCAAGCGACUUCGGUCGUUUGCCGAUGGGUAUC; experiment: fluorescence activation; details: 125 mM KCl, 1 mM MgCl2; 1x TB assembly buffer; EC50 given as N/A; titration to 2 µM
[2] = test system: 2H-AE construct (RNA, other) GGAAUUCAGGAGCUCGGGAGCGUCCACUGCUCCUGAGCGCUCCAGUGGACGGAGCCCUGGUGAAGCCUCCACGCCAGGUCCUGGAUUCCGCAUGUAUCGAGGACUGAAGGAGGCACGGUCCCACGGGCUCCGAGACGUGGAGUCCGUGUCCGCACGUCUCGCGGAUCGAUGCAUGC; experiment: fluorescence activation; details: 125 mM KCl, 1 mM MgCl2; 1x TB assembly buffer; no fluorescence activation
[3] = test system: Spinach construct (RNA, aptamer) GGGAGAUGCUCCCAGUUACAUUCGUGUAGCUGGCCGUGCGGUAAGGACGGGUCCCUAGCUAAUUCGUUAGUUAGGUUGAGUAGAGUGUGAGACCGUACGGGCUGGUGAAGCCUCCACGCCAGCGAGCGUCUCCCGCAUGGCAACGCGACUGAAGGAGGCACGGUCGGCCAUCGGUUUCGACCGGUGGCGGUAGAGCCUUCGGGCUUUACCCGUUGUCAUGC; experiment: fluorescence titration of RNA with fluorophore; details: 125 mM KCl, 1 mM MgCl2, 1x TB assembly buffer, 20 nM RNA, apparent
[4] = test system: Broccoli construct (RNA, aptamer) GGGAGAUGCUCCCAGUUACAUUCGUGUAGCUGGCCGUGCGAGACGGUCGGGUCCAUAGCUAAUUCGUUAGUUAUGUCGAGUAGAGUGUGGGCUCGUACGGGCUGGUGAAGCCUCCACGCCAGCGAGCGUCUCCCGCAUGGCAACGCGACUGAAGGAGGCACGGUCGGCCAUCGGUUUCGACCGGUGGCGGUAGAGCCUUCGGGCUUUACCCGUUGUCAUGC; experiment: fluorescence titration of RNA with fluorophore; details: 125 mM KCl, 1 mM MgCl2; 1x TB assembly buffer; 20 nM RNA; fluorophore 1 nM to 2 µM; apparent
[5] = test system: Mango construct (RNA, aptamer) GGGAGAUCGUCCUAAGCGCUUUCGAGCGUUUAGCCUGGGUCGCGAAGGGACGGUGCGGAGAGGAGAGCGACUCAGGGAUGGUGAAGCCUCCACGCCAUCGACGGUCUCCCGAUACUCAUCGCGACUGAAGGAGGCACGGUCGGCAUUGUACUUCGGUACGAUGCGCAAGCGACUUCGGUCGUUUGCCGAUGGGUAUC; experiment: fluorescence titration of RNA with fluorophore; details: 125 mM KCl, 1 mM MgCl2; 1x TB assembly buffer; 20 nM RNA; fluorophore 1 nM to 2 µM; apparent

SMILES | binding [1] | binding [2] | EC50 ([3]; fluorophore 1 nM to 2 µM) | EC50 [4] | EC50 [5] | EC50 ([3]; fluorophore 1 nM to 2 µM (value above range))
CC1=N/C(=C\c2cc(F)c(O)c(F)c2)C(=O)N1CC(F)(F)F | no | no | 337.5 nM | 598.9 nM |  | 
CN1C=CC(=CC=Cc2oc3ccccc3[n+]2CC(=O)NCCOCCOCCOCCNC(=O)CCCC[C@@H]2SC[C@@H]3NC(=O)N[C@@H]32)c2ccccc21 |  |  |  | 1700 nM | 25.6 nM | 3920 nM
